Experimental data taken from ChEMBL document CHEMBL1124720, “4'-[(4-Piperidyl)carbonyl]methanesulfonanilides as potent, selective, bioavailable class III antiarrhythmic agents” (J Med Chem, 1990).
The source made the active and inactive calls. The rule behind the calls is not given here.

Experiments:
Cavia porcellus [1] = species: Cavia porcellus; assay: Concentration (1-10 uM) that causes 10% prolongation in the action potential duration at 90% […] in Guinea pig right ventricular papillary muscles; assay type: functional, Muscle tissue
Cavia porcellus [2] = species: Cavia porcellus; assay: Maximum percent increase in 90% repolarization at a concentration of 10 uM in Guinea pig right ventricular papillary muscles; assay type: functional, Muscle tissue
Cavia porcellus [3] = species: Cavia porcellus; assay: The maximum percent change in the maximum rate rise of the action Potential in Guinea pig right ventricular papillary muscles, at compound concentration 1-10 uM; NS=Not significant; assay type: functional; details: Muscle tissue
Canis familiaris [4] = assay: Percent change in Heart rate after intravenous administration of 0.003 mg/kg in Anesthetized Dogs; assay type: functional, Canis lupus familiaris
Canis familiaris [5] = assay: Percent change in Mean Blood pressure after intravenous administration of 0.01 mg/kg in Anesthetized Dogs; assay type: functional, Canis lupus familiaris
Canis familiaris [6] = assay: Percent change in Mean Blood pressure after intravenous administration of 0.03 mg/kg in Anesthetized Dogs; assay type: functional, Canis lupus familiaris
Canis familiaris [7] = assay: Percent change in Heart rate after intravenous administration of 0.01 mg/kg in Anesthetized Dogs; assay type: functional, Canis lupus familiaris
Canis familiaris [8] = assay: Percent change in Heart rate after intravenous administration of 0.03 mg/kg in Anesthetized Dogs; assay type: functional, Canis lupus familiaris
Canis familiaris [9] = assay: Percent change in Effective refractory period after intravenous administration of 0.003 mg/kg in Anesthetized Dogs; assay type: functional, Canis lupus familiaris
Canis familiaris [10] = assay: Percent change in Effective refractory period after intravenous administration of 0.01 mg/kg in Anesthetized Dogs; assay type: functional, Canis lupus familiaris
Canis familiaris [11] = assay: Percent change in Effective refractory period after intravenous administration of 0.03 mg/kg in Anesthetized Dogs; assay type: functional, Canis lupus familiaris
Cavia porcellus [12] = species: Cavia porcellus; assay: Concentration (0.1-10 uM) that causes 10% prolongation in the action potential duration at 90% […] in Guinea pig right ventricular papillary muscles; assay type: functional, Muscle tissue
Canis familiaris [13] = assay: Percent change in Mean Blood pressure after intravenous administration of 0.3 mg/kg in Anesthetized Dogs; assay type: functional, Canis lupus familiaris
Canis familiaris [14] = assay: Percent change in Mean Blood pressure after intravenous administration of 1 mg/kg in Anesthetized Dogs; assay type: functional, Canis lupus familiaris
Canis familiaris [15] = assay: Percent change in Mean Blood pressure after intravenous administration of 3 mg/kg in Anesthetized Dogs; assay type: functional, Canis lupus familiaris
Canis familiaris [16] = assay: Percent change in rate of left ventricular pressure after intravenous administration of 0.3 mg/kg in Anesthetized Dogs; assay type: functional, Canis lupus familiaris, Heart left ventricle
Canis familiaris [17] = assay: Percent change in rate of left ventricular pressure after intravenous administration of 1 mg/kg in Anesthetized Dogs; assay type: functional, Canis lupus familiaris, Heart left ventricle
Canis familiaris [18] = assay: Percent change in QTc interval after intravenous administration of 0.3 mg/kg in Anesthetized Dogs; assay type: functional, Canis lupus familiaris
Canis familiaris [19] = assay: Percent change in QTc interval after intravenous administration of 1 mg/kg in Anesthetized Dogs; assay type: functional, Canis lupus familiaris
Canis familiaris [20] = assay: Percent change in QTc interval after intravenous administration of 3 mg/kg in Anesthetized Dogs; assay type: functional, Canis lupus familiaris
Canis familiaris [21] = assay: Percent change in Heart rate after intravenous administration of 0.3 mg/kg in Anesthetized Dogs; assay type: functional, Canis lupus familiaris
Canis familiaris [22] = assay: Percent change in Heart rate after intravenous administration of 1 mg/kg in Anesthetized Dogs; assay type: functional, Canis lupus familiaris
Canis familiaris [23] = assay: Percent change in Heart rate after intravenous administration of 3 mg/kg in Anesthetized Dogs; assay type: functional, Canis lupus familiaris
Canis familiaris [24] = assay: Percent change in Effective refractory period after intravenous administration of 0.3 mg/kg in Anesthetized Dogs; assay type: functional, Canis lupus familiaris
Canis familiaris [25] = assay: Percent change in Effective refractory period after intravenous administration of 1 mg/kg in Anesthetized Dogs; assay type: functional, Canis lupus familiaris
Canis familiaris [26] = assay: Percent change in Effective refractory period after intravenous administration of 3 mg/kg in Anesthetized Dogs; assay type: functional, Canis lupus familiaris
Cavia porcellus [27] = species: Cavia porcellus; assay: Concentration (1-100 uM) that causes 10% prolongation in the action potential duration at 90% […] in Guinea pig right ventricular papillary muscles; assay type: functional, Muscle tissue
Cavia porcellus [28] = species: Cavia porcellus; assay: Maximum percent increase in 90% repolarization at a concentration of 100 uM in Guinea pig right ventricular papillary muscles; assay type: functional, Muscle tissue
Cavia porcellus [29] = species: Cavia porcellus; assay: The maximum percent change in the maximum rate rise of the action Potential in Guinea pig right ventricular papillary muscles at concentration 1-100 uM; NS=Not significant; assay type: functional; details: Muscle tissue
Canis familiaris [30] = assay: Percent change in rate of left ventricular pressure after intravenous administration of 3 mg/kg in Anesthetized Dogs; assay type: functional, Canis lupus familiaris, Heart left ventricle
[31] = Half life of beta-elimination phase in plasma after oral administration of 10-50 mg/kg in conscious dogs; Range is 2.2-2.9; assay type: ADME, organism-based, Canis lupus familiaris; details: dog
Canis familiaris [32] = assay: Percent change in Mean Blood pressure after intravenous administration of 0.1 mg/kg in Anesthetized Dogs; assay type: functional, Canis lupus familiaris
Canis familiaris [33] = assay: Percent change in rate of left ventricular pressure after intravenous administration of 0.01 mg/kg in Anesthetized Dogs; assay type: functional, Canis lupus familiaris, Heart left ventricle
Canis familiaris [34] = assay: Percent change in rate of left ventricular pressure after intravenous administration of 0.03 mg/kg in Anesthetized Dogs; assay type: functional, Canis lupus familiaris, Heart left ventricle
Canis familiaris [35] = assay: Percent change in rate of left ventricular pressure after intravenous administration of 0.1 mg/kg in Anesthetized Dogs; assay type: functional, Canis lupus familiaris, Heart left ventricle
Canis familiaris [36] = assay: Percent change in QTc interval after intravenous administration of 0.03 mg/kg in Anesthetized Dogs; assay type: functional, Canis lupus familiaris
Canis familiaris [37] = assay: Percent change in QTc interval after intravenous administration of 0.1 mg/kg in Anesthetized Dogs; assay type: functional, Canis lupus familiaris
Canis familiaris [38] = assay: Percent change in Heart rate after intravenous administration of 0.1 mg/kg in Anesthetized Dogs; assay type: functional, Canis lupus familiaris
Canis familiaris [39] = assay: Percent change in Effective refractory period after intravenous administration of 0.1 mg/kg in Anesthetized Dogs; assay type: functional, Canis lupus familiaris
Cavia porcellus [40] = species: Cavia porcellus; assay: The maximum percent change in the maximum rate rise of the action Potential in Guinea pig right ventricular papillary muscles at concentration 0.1-100 uM; NS=Not significant; assay type: functional; details: Muscle tissue
Cavia porcellus [41] = species: Cavia porcellus; assay: Concentration (0.1-100 uM) that causes 10% prolongation in the action potential duration at 90% […] in Guinea pig right ventricular papillary muscles; assay type: functional, Muscle tissue
Canis familiaris [42] = assay: Percent change in QTc interval after intravenous administration of 0.01 mg/kg in Anesthetized Dogs; assay type: functional, Canis lupus familiaris
Canis familiaris [43] = assay: Percent change in Effective refractory period after intravenous administration of 0.01 mg/kg in Anesthetized Dogs
[44] = Half life of beta-elimination phase in plasma after oral administration of 10-50 mg/kg in conscious dogs; Range is 1.4-2.1; assay type: ADME, organism-based, Canis lupus familiaris; details: dog
Canis familiaris [45] = assay: Percent change in Heart rate after intravenous administration of 0.01 mg/kg in Anesthetized Dogs

| SMILES | mBP(delta) (Canis familiaris [5]) [%] | mBP(delta) (Canis familiaris [6]) [%] | HR(delta) (Canis familiaris [7]) [%] | HR(delta) (Canis familiaris [8]) [%] | ERP (delta) (Canis familiaris [10]) [%] | ERP (delta) (Canis familiaris [11]) [%] | C10APD90 (Cavia porcellus [27]) [µM] | Max APD90 (delta) (Cavia porcellus [28]) [%] | Vmax (Cavia porcellus [29]) | mBP(delta) (Canis familiaris [32]) [%] | LV dP/dTmax(delta) (Canis familiaris [33]) [%] | LV dP/dTmax(delta) (Canis familiaris [34]) [%] | LV dP/dTmax(delta) (Canis familiaris [35]) [%] | QTc delta (Canis familiaris [36]) [%] | QTc delta (Canis familiaris [37]) [%] | HR(delta) (Canis familiaris [38]) [%] | ERP (delta) (Canis familiaris [39]) [%] | QTc delta (Canis familiaris [42]) [%] | other results |
| --- | --- | --- | --- | --- | --- | --- | --- | --- | --- | --- | --- | --- | --- | --- | --- | --- | --- | --- | --- |
| CCCCCCC[N+](CC)(CC)CCCCc1ccc(Cl)cc1 [CLOFILIUM] | – | – | – | – | – | – | – | – | – | – | – | – | – | – | – | – | – | – | C10APD90 (Cavia porcellus [1]): 1 µM; Max APD90 (delta) (Cavia porcellus [2]): 13%; Vmax (Cavia porcellus [3]): inactive |
| Cc1cccc(CCN2CCC(C(=O)c3ccc(NS(C)(=O)=O)cc3)CC2)n1.Cl.Cl | -4 | -6 | -20 | -30 | 15 | 24 | – | – | – | – | – | – | – | – | – | – | – | – | HR(delta) (Canis familiaris [4]): -8%; ERP (delta) (Canis familiaris [9]): 6%; C10APD90 (Cavia porcellus [12]): 0.13 µM |
| CC(C)NCC(O)c1ccc(NS(C)(=O)=O)cc1 (stereo not drawn) [SOTALOL] | – | – | – | – | – | – | 16.3 | 21 | inactive | – | – | – | – | – | – | – | – | – | mBP(delta) (Canis familiaris [13]): 0%; mBP(delta) (Canis familiaris [14]): -7%; mBP(delta) (Canis familiaris [15]): -13%; LV dP/dTmax(delta) (Canis familiaris [16]): -1%; LV dP/dTmax(delta) (Canis familiaris [17]): -4%; QTc delta (Canis familiaris [18]): 4%; QTc delta (Canis familiaris [19]): 11%; QTc delta (Canis familiaris [20]): 23%; HR(delta) (Canis familiaris [21]): -6%; HR(delta) (Canis familiaris [22]): -19%; HR(delta) (Canis familiaris [23]): -30%; ERP (delta) (Canis familiaris [24]): 5%; ERP (delta) (Canis familiaris [25]): 14%; ERP (delta) (Canis familiaris [26]): 26%; LV dP/dTmax(delta) (Canis familiaris [30]): 5% |
| CS(=O)(=O)Nc1ccc(C(=O)C2CCN(CCCc3ccncc3)CC2)cc1.Cl.Cl | 2 | -5 | -6 | -20 | – | 15 | – | 33 | – | -9 | 7 | 13 | 13 | 15 | 21 | -28 | 19 | 7 | half-life [31]: 2.2 h; Vmax (Cavia porcellus [40]): inactive; C10APD90 (Cavia porcellus [41]): 0.19 µM; ERP (delta) (Canis familiaris [43]): 11% |
| CS(=O)(=O)Nc1ccc(C(=O)C2CCN(CCc3cccnc3)CC2)cc1.Cl.Cl | -2 | -2 | – | -8 | 6 | 10 | 1.51 | 20 | inactive | -8 | 8 | 22 | 26 | 13 | 25 | -17 | 19 | 5 | half-life [44]: 1.4 h; HR(delta) (Canis familiaris [45]): -3% |
